This is an account of results in ChEMBL document CHEMBL1145168, “Farnesoid X receptor: from structure to potential clinical applications” (J Med Chem, 2005).

One test concerns the target T1, Bile acid receptor (Homo sapiens, UniProt Q96RI1).
T1 sequence (Q96RI1 whole entry): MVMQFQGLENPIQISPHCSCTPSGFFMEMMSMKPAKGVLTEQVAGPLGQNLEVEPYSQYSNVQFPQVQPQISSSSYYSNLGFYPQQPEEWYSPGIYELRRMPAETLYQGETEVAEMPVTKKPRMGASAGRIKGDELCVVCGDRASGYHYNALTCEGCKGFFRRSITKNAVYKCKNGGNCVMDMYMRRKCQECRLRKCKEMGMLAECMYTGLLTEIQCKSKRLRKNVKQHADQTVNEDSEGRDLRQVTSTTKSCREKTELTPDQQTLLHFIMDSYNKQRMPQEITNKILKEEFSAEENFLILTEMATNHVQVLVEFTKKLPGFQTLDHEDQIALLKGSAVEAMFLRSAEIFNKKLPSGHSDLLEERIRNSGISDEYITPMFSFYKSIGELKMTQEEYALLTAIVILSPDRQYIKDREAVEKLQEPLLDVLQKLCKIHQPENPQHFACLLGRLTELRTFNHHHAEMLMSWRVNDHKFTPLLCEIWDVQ
Description: Activation of human farnesoid X receptor in FRET assay.

The next test is filed under the species Homo sapiens. Put plainly: Activation of human Farnesoid X receptor/Retinoic X receptor at 5 uM.
Test [1] in a line: Inhibition of human Farnesoid X receptor/Retinoid X receptor heterodimer; Antagonistic activity. The test is classed as functional.

Usually EC50 stands for the concentration giving half of the maximal effect. The low end stands for higher potency in that assay, the high end for lower potency in that assay. A word on the IC50: it is the concentration at which inhibition is half-maximal.

Take `O=C(O)/C=C/c1cccc(N(Cc2ccc(-c3ccc4c(c3)OCO4)cc2)C(=O)C2CCCCC2)c1`: on Bile acid receptor, it took 222 nM to reach a half-maximal effect (EC50). `CCCC/C(=C\c1ccc(C(=O)O)cc1)c1ccc2c(c1)C(C)(C)CCC2(C)C` registered a Fold activation in the test listed under Homo sapiens of 85. On to `CN(C)c1ccc(-c2ccc(CN(C(=O)C3CCCCC3)c3cccc(/C=C/C(=O)O)c3)cc2)cc1`, for which the EC50 at Bile acid receptor turned out to be 255 nM. Take `CC1(C)CCC(C)(C)c2cc(C(Cc3ccc(C(=O)O)cc3)[Si](C)(C)C)ccc21` (stereo unspecified): in the test filed under Homo sapiens, the Fold activation turned out to be 91. `CCCCCCOc1c(\C(C)=C/C=C/C(C)=C/C(=O)O)cc(C(C)C)cc1C(C)C`: the IC50 in test [1] was less than 10 nM. For `O=C(O)/C=C/c1cccc(N(Cc2ccc(/C=C/c3ccccc3)cc2)C(=O)C2CCCCC2)c1`, the EC50 at Bile acid receptor amounted to 255 nM.
